Test results from US20230265151A1, “GIP/GLP1 CO-AGONIST COMPOUNDS” (priority 2020, published 2023).
Like-named read-outs stand apart in the source and are kept apart here.

Columns and labels:
Assay type in all cases: cell-based
hGLP-1R = hGLP-1R (Homo sapiens, UniProt P43220); experiment: Functional cAMP formation (HTRF) in HEK-293 clonal cells expressing hGLP-1R, 0.1% bovine casein, without or with 1.0% human serum albumin; design: expressed in transfected cells; details: for EC50: geometric mean, read-out: hGLP-1R EC50, nM (SEM, n); for Emax: read-out: hGLP-1R Emax, % ± SEM
How it was run: (§1)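 Cells were stimulated with peptide for 30 min at 37° C, then intracellular cAMP was measured by competitive HTRF (665/620 nm ratio) and converted to nM using a cAMP standard curve. Relative EC50 and Emax came from four-parameter logistic fits of percent maximal response against peptide concentration.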

hGIPR = target: T1, hGIPR (Homo sapiens, UniProt P48546); experiment: Functional cAMP formation (HTRF) in HEK-293 clonal cells expressing hGIPR, 0.1% bovine casein, without or with 1.0% human serum albumin; details: for Emax: read-out: hGIPR Emax, % ± SEM; for EC50: geometric mean, read-out: hGIPR EC50, nM (SEM, n)
T1 construct: expressed in transfected cells
T1 sequence (P48546 22-466): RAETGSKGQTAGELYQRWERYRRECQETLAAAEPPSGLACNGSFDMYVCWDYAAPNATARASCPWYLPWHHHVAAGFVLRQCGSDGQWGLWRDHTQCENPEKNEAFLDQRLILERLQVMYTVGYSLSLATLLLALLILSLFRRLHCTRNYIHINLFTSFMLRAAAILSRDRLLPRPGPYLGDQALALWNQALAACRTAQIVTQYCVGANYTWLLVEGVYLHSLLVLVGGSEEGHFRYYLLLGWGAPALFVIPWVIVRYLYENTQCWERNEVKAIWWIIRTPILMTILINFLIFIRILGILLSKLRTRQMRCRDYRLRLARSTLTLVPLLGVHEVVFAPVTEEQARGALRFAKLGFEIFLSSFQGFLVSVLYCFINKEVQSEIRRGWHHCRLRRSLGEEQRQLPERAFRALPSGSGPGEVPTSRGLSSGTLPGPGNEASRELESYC
How it was run: as §1

hGCGR = target: T2, hGCGR (Homo sapiens, UniProt P47871); experiment: Functional cAMP formation (HTRF) in HEK-293 clonal cells expressing hGCGR, 0.1% bovine casein, without or with 1.0% human serum albumin; details: geometric mean, read-out: hGCGR EC50, nM (SEM, n)
T2 construct: expressed in transfected cells
How it was run: as §1

[1] = 0.1% bovine casein and 1.0% human serum albumin, 37° C.
[2] = HEK293, percent of maximal response to GLP-1(7-36)NH2, 37° C., 0.1% bovine casein, arithmetic mean
[3] = cAMP, incubated at 37° C., 0.1% bovine casein (no human serum albumin)
[4] = HEK293, 0.1% bovine casein and 1.0% human serum albumin, 37° C., percent of maximal response to GIP(1-42)NH2
[5] = HEK293, percent of maximal response to GIP(1-42)NH2, 37° C., 0.1% bovine casein, arithmetic mean
[6] = HEK293, 0.1% bovine casein and 1.0% human serum albumin, 37° C., percent of maximal response to GLP-1(7-36)NH2

T2 sequence (P47871 26-477): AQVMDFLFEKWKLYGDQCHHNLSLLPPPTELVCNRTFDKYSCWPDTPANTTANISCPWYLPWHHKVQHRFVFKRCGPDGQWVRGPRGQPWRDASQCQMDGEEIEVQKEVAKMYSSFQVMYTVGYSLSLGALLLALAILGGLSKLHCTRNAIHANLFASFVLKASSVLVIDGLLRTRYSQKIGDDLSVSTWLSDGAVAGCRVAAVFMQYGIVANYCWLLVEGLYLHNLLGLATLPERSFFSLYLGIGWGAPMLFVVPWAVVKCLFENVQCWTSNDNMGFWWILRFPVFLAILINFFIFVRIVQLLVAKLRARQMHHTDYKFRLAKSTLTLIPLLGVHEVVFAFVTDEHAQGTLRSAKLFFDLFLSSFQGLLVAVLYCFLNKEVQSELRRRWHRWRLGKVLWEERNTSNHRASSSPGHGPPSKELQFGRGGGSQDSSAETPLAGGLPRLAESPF
Sequence of hGLP-1R (P43220 24-463): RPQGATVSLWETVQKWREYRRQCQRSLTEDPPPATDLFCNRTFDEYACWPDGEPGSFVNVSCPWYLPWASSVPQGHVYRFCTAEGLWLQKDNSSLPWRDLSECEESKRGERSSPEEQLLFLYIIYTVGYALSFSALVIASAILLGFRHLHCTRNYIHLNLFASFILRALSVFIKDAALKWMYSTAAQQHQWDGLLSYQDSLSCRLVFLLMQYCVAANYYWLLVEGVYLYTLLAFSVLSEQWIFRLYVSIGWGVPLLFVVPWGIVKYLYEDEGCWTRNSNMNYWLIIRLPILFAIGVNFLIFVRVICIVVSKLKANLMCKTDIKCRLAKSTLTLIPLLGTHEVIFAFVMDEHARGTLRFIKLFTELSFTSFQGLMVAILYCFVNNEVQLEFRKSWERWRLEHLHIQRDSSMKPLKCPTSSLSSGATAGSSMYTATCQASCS

SMILES	EC50 (hGLP-1R; [1]) [nM]	Emax (hGLP-1R; [2]) [%]	EC50 (hGLP-1R; [3]) [nM]	Emax (hGIPR; [4]) [%]	EC50 (hGCGR; [1]) [nM]	EC50 (hGCGR; [3]) [nM]	EC50 (hGIPR; [1]) [nM]	Emax (hGIPR; [5]) [%]	EC50 (hGIPR; [3]) [nM]	Emax (hGLP-1R; [6]) [%]
CCCCCCCCCCCCCCCC(=O)N[C@@H](CCC(=O)NCCOCCOCC(=O)NCCOCCOCC(=O)NCCCC[C@H](NC(=O)[C@H](CCCN)NC(=O)[C@H](CC(=O)O)NC(=O)[C@H](CC(C)C)NC(=O)[C@](C)(CC(C)C)NC(=O)[C@@H](NC(=O)[C@H](CO)NC(=O)[C@H](Cc1ccncc1)NC(=O)[C@H](CC(=O)O)NC(=O)[C@H](CO)NC(=O)[C@@H](NC(=O)[C@](C)(Cc1ccccc1F)NC(=O)[C@@H](NC(=O)CNC(=O)[C@H](CCC(=O)O)NC(=O)C(C)(C)NC(=O)[C@@H](N)Cc1ccc(O)cc1)[C@@H](C)O)[C@@H](C)O)[C@@H](C)CC)C(=O)N[C@@H](C)C(=O)N[C@@H](CCC(N)=O)C(=O)NC(C)(C)C(=O)N[C@@H](CCC(=O)O)C(=O)N[C@@H](Cc1ccccc1)C(=O)N[C@H](C(=O)N[C@H](CCC(=O)O)C(=O)N[C@@H](CCCCNC(=O)COCCOCCNC(=O)COCCOCCNC(=O)CC[C@H](NC(=O)CCCCCCCCCCCCCCC)C(=O)O)C(=O)N[C@@H](CC(C)C)C(=O)N[C@H](C(=O)N[C@@H](CCC(=O)O)C(=O)NCC(=O)NCC(=O)N1CCC[C@H]1C(=O)N[C@@H](CO)C(=O)N[C@@H](CO)C(=O)NCC(=O)N[C@@H](C)C(=O)N1CCC[C@H]1C(=O)N1CCC[C@H]1C(=O)N1CCC[C@H]1C(=O)N[C@@H](CO)C(N)=O)[C@@H](C)CC)[C@@H](C)CC)C(=O)O [Example 32]	1.73	119	0.0063	98.2	> 9950	> 9950	–	–	–	–
CC[C@H](C)[C@H](NC(=O)[C@H](CC(C)C)NC(=O)[C@](C)(Cc1ccc(O)cc1)NC(=O)[C@@H](CCC(=O)O)NC(=O)[C@@H](NC(=O)[C@H](Cc1ccccc1)NC(=O)[C@H](CCC(=O)O)NC(=O)C(C)(C)NC(=O)[C@H](CCC(N)=O)NC(=O)[C@H](C)NC(=O)[C@H](CCCCNC(=O)COCCOCCNC(=O)[C@@H](N)CCCCNC(=O)CC[C@H](NC(=O)CCCCCCCCCCCCC(=O)O)C(=O)O)NC(=O)[C@H](CCCN)NC(=O)[C@H](CC(=O)O)NC(=O)[C@H](CC(C)C)NC(=O)[C@](C)(CC(C)C)NC(=O)[C@@H](NC(=O)[C@H](CO)NC(=O)[C@H](Cc1ccncc1)NC(=O)[C@H](CC(=O)O)NC(=O)[C@H](CO)NC(=O)[C@@H](NC(=O)[C@](C)(Cc1ccccc1F)NC(=O)[C@@H](NC(=O)CNC(=O)[C@H](CCC(=O)O)NC(=O)C(C)(C)NC(=O)[C@@H](N)Cc1ccc(O)cc1)[C@@H](C)O)[C@@H](C)O)[C@@H](C)CC)[C@@H](C)CC)C(=O)N[C@@H](CCC(=O)O)C(=O)NCC(=O)NCC(=O)N[C@@H](CCCCNC(=O)COCCOCCNC(=O)[C@@H](N)CCCCNC(=O)CC[C@H](NC(=O)CCCCCCCCCCCCC(=O)O)C(=O)O)C(=O)N[C@@H](CO)C(=O)N[C@@H](CO)C(=O)NCC(=O)N[C@@H](C)C(=O)N1CCC[C@H]1C(=O)N1CCC[C@H]1C(=O)N1CCC[C@H]1C(=O)N[C@@H](CO)C(N)=O [Example 35]	16.4	–	–	91.7 ± 1.28	> 9950	> 9950	0.35	97 ± 2.32	0.0162	–
CC[C@H](C)[C@H](NC(=O)[C@H](CC(C)C)NC(=O)[C@](C)(Cc1ccc(O)cc1)NC(=O)[C@@H](CCC(=O)O)NC(=O)[C@@H](NC(=O)[C@H](Cc1ccccc1)NC(=O)[C@H](CCC(=O)O)NC(=O)C(C)(C)NC(=O)[C@H](CCC(N)=O)NC(=O)[C@H](C)NC(=O)[C@H](CCCCNC(=O)[C@@H](N)CCCCNC(=O)CC[C@H](NC(=O)CCCCCCCCCCCCC(=O)O)C(=O)O)NC(=O)[C@H](CCCN)NC(=O)[C@H](CC(=O)O)NC(=O)[C@H](CC(C)C)NC(=O)[C@](C)(CC(C)C)NC(=O)[C@@H](NC(=O)[C@H](CO)NC(=O)[C@H](Cc1ccncc1)NC(=O)[C@H](CC(=O)O)NC(=O)[C@H](CO)NC(=O)[C@@H](NC(=O)[C@](C)(Cc1ccccc1F)NC(=O)[C@@H](NC(=O)CNC(=O)[C@H](CCC(=O)O)NC(=O)C(C)(C)NC(=O)[C@@H](N)Cc1ccc(O)cc1)[C@@H](C)O)[C@@H](C)O)[C@@H](C)CC)[C@@H](C)CC)C(=O)N[C@@H](CCC(=O)O)C(=O)NCC(=O)NCC(=O)N[C@@H](CCCCNC(=O)[C@@H](N)CCCCNC(=O)CC[C@H](NC(=O)CCCCCCCCCCCCC(=O)O)C(=O)O)C(=O)N[C@@H](CO)C(=O)N[C@@H](CO)C(=O)NCC(=O)N[C@@H](C)C(=O)N1CCC[C@H]1C(=O)N1CCC[C@H]1C(=O)N1CCC[C@H]1C(=O)N[C@@H](CO)C(N)=O [Example 38]	12.5	–	0.225	88.8 ± 0.59	> 9950	> 9950	0.539	–	0.0155	115 ± 2.53
CC[C@H](C)[C@H](NC(=O)[C@H](CC(C)C)NC(=O)[C@](C)(Cc1ccc(O)cc1)NC(=O)[C@@H](CCC(=O)O)NC(=O)[C@@H](NC(=O)[C@H](Cc1ccccc1)NC(=O)[C@H](CCC(=O)O)NC(=O)C(C)(C)NC(=O)[C@H](CCC(N)=O)NC(=O)[C@H](C)NC(=O)[C@H](CCCCNC(=O)CC[C@H](NC(=O)COCCOCCNC(=O)CCCCCCCCCCCCC(=O)O)C(=O)O)NC(=O)[C@H](CCCN)NC(=O)[C@H](CC(=O)O)NC(=O)[C@H](CC(C)C)NC(=O)[C@](C)(CC(C)C)NC(=O)[C@@H](NC(=O)[C@H](CO)NC(=O)[C@H](Cc1ccncc1)NC(=O)[C@H](CC(=O)O)NC(=O)[C@H](CO)NC(=O)[C@@H](NC(=O)[C@](C)(Cc1ccccc1F)NC(=O)[C@@H](NC(=O)CNC(=O)[C@H](CCC(=O)O)NC(=O)C(C)(C)NC(=O)[C@@H](N)Cc1ccc(O)cc1)[C@@H](C)O)[C@@H](C)O)[C@@H](C)CC)[C@@H](C)CC)C(=O)N[C@@H](CCC(=O)O)C(=O)NCC(=O)NCC(=O)N[C@@H](CCCCNC(=O)CC[C@H](NC(=O)COCCOCCNC(=O)CCCCCCCCCCCCC(=O)O)C(=O)O)C(=O)N[C@@H](CO)C(=O)N[C@@H](CO)C(=O)NCC(=O)N[C@@H](C)C(=O)N1CCC[C@H]1C(=O)N1CCC[C@H]1C(=O)N1CCC[C@H]1C(=O)N[C@@H](CO)C(N)=O [Example 42]	26.7	–	–	91.1 ± 0.67	> 9950	> 9950	1	97.8 ± 7.18	0.0103	–
CC[C@H](C)[C@H](NC(=O)[C@H](CC(C)C)NC(=O)[C@](C)(Cc1ccc(O)cc1)NC(=O)[C@@H](CCC(=O)O)NC(=O)[C@@H](NC(=O)[C@](C)(Cc1ccccc1)NC(=O)[C@H](CCC(=O)O)NC(=O)C(C)(C)NC(=O)[C@H](CCC(N)=O)NC(=O)[C@H](C)NC(=O)[C@H](CCCCNC(=O)COCCOCCNC(=O)COCCOCCNC(=O)CC[C@H](NC(=O)CCCCCCCCCCCCC(=O)O)C(=O)O)NC(=O)[C@H](CCCN)NC(=O)[C@H](CC(=O)O)NC(=O)[C@H](CC(C)C)NC(=O)[C@](C)(CC(C)C)NC(=O)[C@@H](NC(=O)[C@H](CO)NC(=O)[C@H](Cc1ccncc1)NC(=O)[C@H](CC(=O)O)NC(=O)[C@H](CO)NC(=O)[C@@H](NC(=O)[C@](C)(Cc1ccccc1)NC(=O)[C@@H](NC(=O)CNC(=O)[C@H](CCC(=O)O)NC(=O)C(C)(C)NC(=O)[C@@H](N)Cc1ccc(O)cc1)[C@@H](C)O)[C@@H](C)O)[C@@H](C)CC)[C@@H](C)CC)C(=O)N[C@@H](CCC(=O)O)C(=O)NCC(=O)NCC(=O)N[C@@H](CCCCNC(=O)COCCOCCNC(=O)COCCOCCNC(=O)CC[C@H](NC(=O)CCCCCCCCCCCCC(=O)O)C(=O)O)C(=O)N[C@@H](CO)C(=O)N[C@@H](CO)C(=O)NCC(=O)N[C@@H](C)C(=O)N1CCC[C@H]1C(=O)N1CCC[C@H]1C(=O)N1CCC[C@H]1C(=O)N[C@@H](CO)C(N)=O [Example 47]	1670	87.1 ± 14.1	–	85.6	> 9950	> 9950	–	89.8 ± 1.2	0.0138	134
